Consider one molecule from US11845774B2, “Sterol derivatives and preparation method and uses thereof” (BEIJING PEKING UNIVERSITY WBL BIOTECH CO., LTD., priority 2011, dated 2023).

Test [1] has as its system mice lymphoma cell YAC-1. The experiment in a line: MTT test of inhibiting cancer cells, YAC-1. Format: cell-based. The settings on record: Mus musculus, 72 hours, FIG. 5, read-out: IC50 value, growth of YAC-1. The protocol:
(§1) Cancer cells of exponential growth phase were inoculated on 96-well plate, 2×10^4 cells/well, added with drug until final drug concentrations were: 500, 250, 125, 62.5, 31.25, 15.625 and 7.8125 μg/mL, cultured at 37° C. in 5% CO2 cell culture incubator for 72 hours, then added with MTT, 10 μL/well, incubated in dark at 37° C. for 4 hours, culture medium was removed, 150 μL of DMSO or acidified isopropanol was added, vibrated for 5 minutes, and then OD values were measured under wavelength of 570 nm. This was repeated for 3 times, and a blank control was set. These cell strains used the same culture medium, i.e., RPMI1640 culture medium containing 10% fetal bovine serum and 1% double antibody (penicillin and steptomycin).
(§2) Calculation Formula: Cell survival rate=(OD value of test group/OD value of control group)×100%.

In test [2] the test system is human mononuclear lymphoma cell THP1. The experiment in a line: MTT test of inhibiting cancer cells, THP1. Type of test: cell-based. To be noted: THP-1, 72 hours, FIG. 6, read-out: IC50 value, growth of THP1. As to the method:
as §1, §2

Test [3] concerns human colon cancer cell strain HCT116. Description: MTT test of inhibiting cancer cells, HCT116. Format: cell-based. The settings on record: 72 hours, FIG. 1, concentration-effect relationship. The protocol: as §1, §2
For test [4], the system named is HepG2 cells. Description: MTT test of inhibiting cancer cells, HepG2. Format: cell-based. The settings on record: Homo sapiens, 72 hours, FIG. 3, read-out: IC50 value, growth of human hepatoma cell line. As to the method:
as §1, §2

In test [5] the target is T1, HMG-CoA reductase (rat liver microsomes) (Rattus norvegicus, UniProt P51639).
T1 construct: taking out liver of male rat, washing with KESD buffer solution; from tissue; host or cells: liver of male rat (microsomal fraction, glycerol/37 °C treatment, 35-50% ammonium sulfate fraction)
T1 sequence (P51639 1-887): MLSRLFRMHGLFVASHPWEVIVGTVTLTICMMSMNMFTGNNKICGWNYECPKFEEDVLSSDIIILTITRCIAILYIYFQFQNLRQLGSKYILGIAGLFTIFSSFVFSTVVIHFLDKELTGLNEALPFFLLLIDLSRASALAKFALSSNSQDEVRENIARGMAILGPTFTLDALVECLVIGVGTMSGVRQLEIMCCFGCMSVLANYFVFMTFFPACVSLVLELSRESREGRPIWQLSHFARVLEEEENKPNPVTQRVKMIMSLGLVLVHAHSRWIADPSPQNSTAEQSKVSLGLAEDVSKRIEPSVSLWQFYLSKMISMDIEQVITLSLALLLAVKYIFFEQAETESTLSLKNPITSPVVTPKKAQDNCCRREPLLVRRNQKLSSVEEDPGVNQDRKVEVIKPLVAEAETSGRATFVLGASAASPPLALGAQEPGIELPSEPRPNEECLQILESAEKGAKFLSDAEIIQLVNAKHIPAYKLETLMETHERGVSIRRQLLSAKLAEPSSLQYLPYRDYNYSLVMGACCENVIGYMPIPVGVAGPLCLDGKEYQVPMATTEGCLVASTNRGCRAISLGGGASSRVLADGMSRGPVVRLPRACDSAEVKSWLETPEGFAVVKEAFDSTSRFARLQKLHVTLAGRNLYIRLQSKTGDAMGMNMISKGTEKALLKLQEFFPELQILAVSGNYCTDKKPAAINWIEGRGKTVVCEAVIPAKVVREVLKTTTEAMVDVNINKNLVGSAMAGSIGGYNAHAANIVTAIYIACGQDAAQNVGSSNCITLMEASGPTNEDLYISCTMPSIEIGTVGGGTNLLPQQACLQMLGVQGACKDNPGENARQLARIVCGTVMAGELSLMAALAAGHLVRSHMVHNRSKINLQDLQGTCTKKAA
Description: Test of activity of inhibiting HMG-CoA reductase (rate of decline of OD340). Format: biochemical. To be noted: for Slope (rate of decline of OD340): blank control slope 16.0. The protocol: Rat liver microsomes (HMG-CoA reductase), could be commercially available or prepared by the following preparation method: taking out liver of male rat, washing with KESD buffer solution, centrifuging under 1200 g for 15 minutes, collecting supernatant, then centrifuging under 105,000 g twice, 90 minutes for each time, and collecting centrifugation deposit. The centrifugation deposit was added with 8.3% of glycerol, heated with 37° C. bath for 1 hour. The crude product of rat liver microsomes was purified with saturated ammonium sulfate, and 35-50% of purified fraction was collected. The purified fraction obtained could be stored in −80° C. refrigerator.
Compound of Formula II was dissolved in 75% ethanol solution, with initial concentration of 8.0 mg/mL, and diluted in gradient manner, to reach 4.0 mg/mL, 2.0 mg/mL, 1.0 mg/mL; lovastatin was used as positive control, dissolved with 75% ethanol solution to reach concentration of 2.0 mg/mL; in the test system, total volume was 250 μL, concentrations of ingredients were separately: potassium chloride 200 mM, potassium dihydrogen phosphate 160 mM, ethylenediamine tetraacetic acid 4 mM, dithiothreitol 10 mM, […] and 3-hydroxy-3-methylglutary coenzyme A as two substrates separately had concentrations of: 200 μM and 50 μM, pH6.8, 30 μL of enzyme was added, 4 test groups were separately added with 10 μL of new compound solutions with different concentrations, the positive control group was added with 10 μL of lovastatin solution, the blank control group was added with 10 μL of 75% ethanol solution, and dynamitic changes of OD340 were detected with Versamax ELISA at 37° C. condition. The rate of decline of OD340 (expressed in slope value) as detected within 5 minutes was used to evaluate the activity of HMG-CoA reductase, and then to evaluate the activity of enzyme inhibitor and the results were shown in Table 2.

Setting [6] is: final concentration in system 40 μg/mL.
Setting [7] is: final concentration in system 80 μg/mL.
Where [8] appears, read: final concentration in system 160 μg/mL.
[9] abbreviates: final concentration in system 320 μg/mL.

Each structure is given as a SMILES string.

With `C[C@@H](C(O)C1OC2C[C@H]3C4=CC=C5CC(O)CC[C@]5(C)[C@H]4CC[C@]3(C)[C@H]2[C@@]1(C)O)C(C)(C)O` (stereo partly shown) [Compound of Formula II, 16,22-epoxy-ergosta-5,7-dien-3,20,23,25-tetraol], the IC50 was approximately 62.5 µg/mL in test [1]; approximately 250 µg/mL in test [2]; approximately 200 µg/mL in test [4]; approximately 543 µM in test [5] (read-out: IC50 value, inhibition of activity of HMG-CoA reductase (converted)). For the same molecule, the “inhibition effect on growth of HCT116 (in words)” value in test [3] is “inhibition effect”. Also, the Inhibition rate in test [5] (setting [6]) is 14.4%; in test [5] (setting [7]) it was 29.4%; in test [5] (setting [8]), 45.6%; in test [5] (setting [9]), 53.1%. The “Slope (rate of decline of OD340)” value in test [5] (setting [6]) is given as 13.7; in test [5] (setting [7]), 11.3; in test [5] (setting [8]) it was 8.7; in test [5] (setting [9]), 7.5.
